Assay results taken from article PMC12446476 (Nature Communications, 2025).
Values joined by “and” are separate entries in the source; they are usually repeats but may differ in a detail not shown here. Equal entries are not always repeated.

Columns and labels:
N. gonorrhoeae = N. gonorrhoeae murine vaginal infection model, efficacy; format: in vivo, mouse
Protocol: The N. gonorrhoeae female mouse vaginal model[45] was performed in accordance with the Guide for Care and Use of Laboratory Animals[75]. Animal rooms were maintained at a temperature range of 20–24 °C and humidity between 30% and 70%, with 12 h light/dark cycles. Ovariectomized BALB/c female mice (5–6 weeks, BioLASCO Taiwan Co., Ltd.) were treated with estradiol (0.23 mg/mouse) two days before infection and on the day of infection. Ovariectomized mice were used to avoid staging mice before treating them with estradiol. Beginning two days prior to infection and maintained until the end of the study, animals were treated twice daily with streptomycin (1.2 mg/mouse) and vancomycin (0.6 mg/mouse) each via intraperitoneal (IP) injection and received trimethoprim sulfate in the drinking water (0.4 mg/mL) to control vaginal microflora. Animals were anesthetised with pentobarbital (80 mg/kg), the vagina was rinsed with 50 mM HEPES (pH 7.4), and then inoculated with N. gonorrhoeae in pre-warmed PBS (0.02 mL/mouse containing ~1 × 10^5 CFU).
Control groups received either a single IP injection of ceftriaxone or 5% dextrose (vehicle) twice daily. Animals were sacrificed via CO2 asphyxiation at either 2 h (baseline), 26 and/or 50 h post-infection. Vaginal lavage was performed twice with 200 µL GC broth containing 0.05% saponin to recover bacteria. Bacterial burden in the lavage fluids was determined by performing 10-fold serial dilutions and plating on chocolate agar plates. Four strains were assessed using the model; ATCC 700825 is naturally streptomycin-resistant, whereas AR Bank0179-15, AR Bank0181-17 and WHO X-07 are derivatives of AR Bank0179, AR Bank0181 and WHO X, respectively, that were engineered for streptomycin resistance for use in the model.

S. aureus ATCC 29213 = test: S. aureus neutropenic murine thigh infection model; format: in vivo, mouse; details: S. aureus ATCC 29213, daily dose, 300 µg/mL ceftriaxone
Protocol: The S. aureus neutropenic murine thigh infection model was performed in accordance with the Guide for Care and Use of Laboratory Animals[75]. Animal rooms were maintained at a temperature range of 20–24 °C and humidity between 30% and 70%, with 12 h light/dark cycles. Female ICR mice (BioLASCO Taiwan Co., Ltd.) were rendered neutropenic via IP injection of cyclophosphamide four days before infection (150 mg/kg) and again one day before infection (100 mg/kg). Animals were anaesthetised with isoflurane (3–5%), then inoculated intramuscularly with S. aureus ATCC 29213 (~1 × 10^5 CFU/mouse). […] Animals were sacrificed via CO2 asphyxiation at either 2 h (baseline), 26 and/or 50 h post-infection. Thigh tissues were harvested and homogenised in 3 mL sterile PBS (pH 7.4). Bacterial burdens were determined by performing 10-fold serial dilutions and plating on nutrient agar plates.

[1] = system: intracellular N. gonorrhoeae; test: Intracellular killing in HeLa229 cells; format: cell-based, Neisseria gonorrhoeae; details: within 24 h
Protocol: Intracellular killing was assessed within HeLa229 cells (European Collection of Authenticated Cell Cultures, London, UK) that were seeded at ~3 × 10^5 cells/mL and grown to 70–80% confluence in RPMI-glutamine media supplemented with 10% (v/v) heat-inactivated fetal bovine serum (FBS, Gibco, MA, USA). Cells were incubated at 37 °C with 5% CO2 for 24 h, then washed with serum-free RPMI-1640 prior to infection. N. gonorrhoeae was scraped from agar plates and resuspended in Dulbecco’s Phosphate Buffered Saline (DPBS, Sigma-Aldrich), pelleted, then resuspended in RPMI with 2% FBS. Bacterial suspensions were used to infect HeLa229 cells at a multiplicity of infection of 100:1. Plates were briefly centrifuged (500 × g for 5 min), then incubated for one hour. This incubation and all subsequent incubations were performed at 37 °C with 5% CO2. Non-adherent cells were removed by washing with serum-free RPMI, and the remaining extracellular bacteria were killed via resuspension in RPMI-glutamine supplemented with 2% FBS and 200 μg/mL gentamycin and incubation for one hour. […] Azithromycin-treated samples were included for control/comparison. […] Samples were diluted and plated onto chocolate II agar for viable bacteria quantification. Intracellular killing assays were performed at Microbiologics, Kalamazoo, MI, USA, using a method adapted from previous studies[68],[69].

[2] = Data 4, N. gonorrhoeae WHO X-07, ovariectomized BALB/c, 5 mg/kg IP, QD, 24h, individual animals, 5 mg/kg
[3] = Data 4, N. gonorrhoeae WHO X-07, ovariectomized BALB/c, 333.33 mg/kg IP, TID, 24h, individual animals
[4] = Data 4, N. gonorrhoeae WHO X-07, ovariectomized BALB/c, 333.33 mg/kg IP, TID, 48h, individual animals, 333.33 mg/kg
[5] = N. gonorrhoeae AR Bank0179-15, vaginal lavage, individual mice, Ceftriaxone 0.5 mg/kg IP, QD, 24h
[6] = N. gonorrhoeae AR Bank0179-15, vaginal lavage, individual mice, Ceftriaxone 5 mg/kg IP, QD, 24h
[7] = N. gonorrhoeae AR Bank0179-15, vaginal lavage, individual mice, Ceftriaxone 5 mg/kg IP, QD, 48h
[8] = N. gonorrhoeae AR Bank0181-17, vaginal lavage, individual mice, Ceftriaxone 0.5 mg/kg IP, QD, 24h
[9] = N. gonorrhoeae AR Bank0181-17, vaginal lavage, individual mice, Ceftriaxone 5 mg/kg IP, QD, 24h
[10] = N. gonorrhoeae AR Bank0181-17, vaginal lavage, individual mice, Ceftriaxone 5 mg/kg IP, QD, 48h
[11] = N. gonorrhoeae ATCC 700825, vaginal lavage, individual mice, Ceftriaxone 1 mg/kg IP, QD, 24h
[12] = N. gonorrhoeae ATCC 700825, vaginal lavage, individual mice, Ceftriaxone 5 mg/kg IP, QD, 24h
[13] = N. gonorrhoeae ATCC 700825, vaginal lavage, individual mice, Ceftriaxone 5 mg/kg IP, QD, 48h

CO/N=C(\C(=O)N[C@@H]1C(=O)N2C(C(=O)O)=C(CSc3nc(=O)c(=O)[nH]n3C)CS[C@H]12)c1csc(N)n1 [Ceftriaxone, reference compound]
Mean Diff. 0h vs. treatment, log10 CFU (N. gonorrhoeae; AR Bank0179-15, 0.5 µg/mL ceftriaxone, 24h): 3.018
Mean Diff. 0h vs. treatment, log10 CFU (N. gonorrhoeae; AR Bank0179-15, 5 µg/mL ceftriaxone, 24h): 3.186
Mean Diff. 0h vs. treatment, log10 CFU (N. gonorrhoeae; AR Bank0179-15, 5 µg/mL ceftriaxone, 48h): 3.09
Mean Diff. 0h vs. treatment, log10 CFU (N. gonorrhoeae; AR Bank0181-17, 0.5 µg/mL ceftriaxone, 24h): 0.924
Mean Diff. 0h vs. treatment, log10 CFU (N. gonorrhoeae; AR Bank0181-17, 5 µg/mL ceftriaxone, 24h): 3.56
Mean Diff. 0h vs. treatment, log10 CFU (N. gonorrhoeae; AR Bank0181-17, 5 µg/mL ceftriaxone, 48h): 3.56
efficacy against ceftriaxone-susceptible strains (N. gonorrhoeae; ATCC 700825, AR Bank0179-15, AR Bank0181-17): effective
Mean Diff. 0h vs. treatment, log10 CFU (N. gonorrhoeae; ATCC 700825, 1 µg/mL ceftriaxone, 24h): 2.882
Mean Diff. 0h vs. treatment, log10 CFU (N. gonorrhoeae; ATCC 700825, 5 µg/mL ceftriaxone, 24h): 3.022
Mean Diff. 0h vs. treatment, log10 CFU (N. gonorrhoeae; ATCC 700825, 5 µg/mL ceftriaxone, 48h): 3.082
CFU/mL lavage fluid (N. gonorrhoeae; [2]): 1450000 CFU/mL lavage fluid and 400000 CFU/mL lavage fluid and 1290000 CFU/mL lavage fluid and 480000 CFU/mL lavage fluid and 620000 CFU/mL lavage fluid
Log10(CFU/mL lavage fluid) (N. gonorrhoeae; [2]): 6.16 Log10(CFU/mL lavage fluid) and 5.60 Log10(CFU/mL lavage fluid) and 6.11 Log10(CFU/mL lavage fluid) and 5.68 Log10(CFU/mL lavage fluid) and 5.79 Log10(CFU/mL lavage fluid)
CFU/mL lavage fluid (N. gonorrhoeae; [3]): <5.00E+00 CFU/mL lavage fluid
Log10(CFU/mL lavage fluid) (N. gonorrhoeae; [3]): <0.70 Log10(CFU/mL lavage fluid)
CFU/mL lavage fluid (N. gonorrhoeae; [4]): 35 CFU/mL lavage fluid and <5.00E+00 CFU/mL lavage fluid
Log10(CFU/mL lavage fluid) (N. gonorrhoeae; [4]): 1.54 Log10(CFU/mL lavage fluid) and <0.70 Log10(CFU/mL lavage fluid)
CFU/mL lavage fluid (N. gonorrhoeae; [5]): 5 CFU/mL and <5 CFU/mL and 35 CFU/mL
Log10(CFU/mL lavage fluid) (N. gonorrhoeae; [5]): 0.7 Log10(CFU/mL lavage fluid) and <0.70 Log10(CFU/mL lavage fluid) and 1.54 Log10(CFU/mL lavage fluid)
CFU/mL lavage fluid (N. gonorrhoeae; [6]): <5 CFU/mL
Log10(CFU/mL lavage fluid) (N. gonorrhoeae; [6]): <0.70 Log10(CFU/mL lavage fluid)
CFU/mL lavage fluid (N. gonorrhoeae; [7]): 5 CFU/mL and <5 CFU/mL and 15 CFU/mL
Log10(CFU/mL lavage fluid) (N. gonorrhoeae; [7]): 0.7 Log10(CFU/mL lavage fluid) and <0.70 Log10(CFU/mL lavage fluid) and 1.18 Log10(CFU/mL lavage fluid)
CFU/mL lavage fluid (N. gonorrhoeae; [8]): 255 CFU/mL and 195 CFU/mL and 3900 CFU/mL and 37000 CFU/mL and 6600 CFU/mL
Log10(CFU/mL lavage fluid) (N. gonorrhoeae; [8]): 2.41 Log10(CFU/mL lavage fluid) and 2.29 Log10(CFU/mL lavage fluid) and 3.59 Log10(CFU/mL lavage fluid) and 4.57 Log10(CFU/mL lavage fluid) and 3.82 Log10(CFU/mL lavage fluid)
CFU/mL lavage fluid (N. gonorrhoeae; [9]): <5 CFU/mL
Log10(CFU/mL lavage fluid) (N. gonorrhoeae; [9]): <0.70 Log10(CFU/mL lavage fluid)
CFU/mL lavage fluid (N. gonorrhoeae; [10]): <5 CFU/mL
Log10(CFU/mL lavage fluid) (N. gonorrhoeae; [10]): <0.70 Log10(CFU/mL lavage fluid)
CFU/mL lavage fluid (N. gonorrhoeae; [11]): 50 CFU/mL and 5 CFU/mL and <5 CFU/mL
Log10(CFU/mL lavage fluid) (N. gonorrhoeae; [11]): 1.7 Log10(CFU/mL lavage fluid) and 0.7 Log10(CFU/mL lavage fluid) and <0.70 Log10(CFU/mL lavage fluid)
CFU/mL lavage fluid (N. gonorrhoeae; [12]): <5 CFU/mL and 10 CFU/mL
Log10(CFU/mL lavage fluid) (N. gonorrhoeae; [12]): <0.70 Log10(CFU/mL lavage fluid) and 1 Log10(CFU/mL lavage fluid)
CFU/mL lavage fluid (N. gonorrhoeae; [13]): <5 CFU/mL
Log10(CFU/mL lavage fluid) (N. gonorrhoeae; [13]): <0.70 Log10(CFU/mL lavage fluid)
Mean Diff. 0h vs. treatment, log10 CFU (N. gonorrhoeae; WHO X-07, 5 µg/mL ceftriaxone, 24h): -1.846
Mean Diff. 0h vs. treatment, log10 CFU (N. gonorrhoeae; WHO X-07, 1000 µg/mL ceftriaxone, 24h): 3.322
Mean Diff. 0h vs. treatment, log10 CFU (N. gonorrhoeae; WHO X-07, 1000 µg/mL ceftriaxone, 48h): 3.154
efficacy against ceftriaxone-resistant strain WHO X-07 (N. gonorrhoeae; at doses equivalent to those effective against susceptible strains): ineffective
increase in log10CFU/mL at 24 h (N. gonorrhoeae; dose with simulated fT > MIC of 2 h): 1.9 log10CFU/mL
reduction in log10CFU/mL at 24 h (N. gonorrhoeae; doses with simulated fT > MIC of 12 to 18 h): 2.0 log10CFU/mL
reduction in log10CFU/mL at 24 h (N. gonorrhoeae; doses with simulated fT > MIC of >24 h): 3.3 log10CFU/mL
reduction in log10CFU/mL at 24 h (N. gonorrhoeae; doses with simulated fT > MIC of ≥22 to 24 h): 2.9 log10CFU/mL
Mean Diff. 0h vs. treatment, log10 CFU (S. aureus ATCC 29213; 24h): 1.71
Mean Diff. 0h vs. treatment, log10 CFU (S. aureus ATCC 29213; 48h): 2.684

CC[C@H]1OC(=O)[C@H](C)[C@@H](O[C@H]2C[C@@](C)(OC)[C@@H](O)[C@H](C)O2)[C@H](C)[C@@H](O[C@@H]2O[C@H](C)C[C@H](N(C)C)[C@H]2O)[C@](C)(O)C[C@@H](C)CN(C)[C@H](C)[C@@H](O)[C@]1(C)O [Azithromycin]
reduction of intracellular bacteria ([1]; ATCC 49226 in HeLa229 cells): ≥ 3.3 log10CFU/mL
reduction of intracellular bacteria ([1]; WHO X in HeLa229 cells): ≥ 2.8 log10CFU/mL
